# According to patent US20080242667A1, “Pyrimidinyl-Pyrazole Inhibitors of Aurora Kinases” (SMITHKLINE BEECHAM CORPORATION, priority 2005, published 2008):
row,SMILES,melting point
1,"Cn1ncc(-c2ccnc(Nc3cccc(CCN4CCOCC4)c3)n2)c1-c1ccc(NC(=O)N2CCCC2)cc1 [Example 56, N-(4-{1-methyl-4-[2-({3-[2-(4-morpholinyl)ethyl]phenyl}amino)-4-pyrimidinyl]-1H-pyrazol-5-yl}phenyl)-1-pyrrolidinecarboxamide]",228 to 230 °C
2,"O=C(Nc1ccc(-c2nn(CCO)cc2-c2ccnc(Nc3cccc(F)c3)n2)cc1)N1CCCC1 [Example 54, N-{4-[4-{2-[(3-fluorophenyl)amino]-4-pyrimidinyl}-1-(2-hydroxyethyl)-1H-pyrazol-3-yl]phenyl}-1-pyrrolidinecarboxamide]",185 to 186 °C
3,"Cn1cc(-c2ccnc(Nc3cccc(CCN4CCOCC4)c3)n2)c(-c2ccc(NC(=O)NC3CC3)cc2)n1 [Example 55, N-cyclopropyl-N′-(4-{1-methyl-4-[2-({3-[2-(4-morpholinyl)ethyl]phenyl}amino)-4-pyrimidinyl]-1H-pyrazol-3-yl}phenyl)urea]",143 to 145 °C
4,"CN(C)C(=O)Nc1ccc(-c2nn(C)cc2-c2ccnc(Nc3cccc(CCN4CCOCC4)c3)n2)cc1 [Example 65, N,N-dimethyl-N′-(4-{1-methyl-4-[2-({3-[2-(4-morpholinyl)ethyl]phenyl}amino)-4-pyrimidinyl]-1H-pyrazol-3-yl}phenyl)urea]",132 to 134 °C
5,"O=C(Nc1ccc(-c2nn(CCN3CCOCC3)cc2-c2ccnc(Nc3cccc(F)c3)n2)cc1)N1CCCC1 [Example 84, N-(4-{4-[2-{(3-fluorophenyl)amino]-4-pyrimidinyl}-1-[2-(4-morpholinyl)ethyl]-1H-pyrazol-3-yl}phenyl)-1-pyrrolidinecarboxamide]",167 to 168 °C
6,"CCNC(=O)Nc1ccc(-c2nn(C)cc2-c2ccnc(Nc3cccc(CCN4CCOCC4)c3)n2)cc1 [Example 61, N-ethyl-N′-(4-{1-methyl-4-[2-({3-[2-(4-morpholinyl)ethyl]phenyl}amino)-4-pyrimidinyl]-1H-pyrazol-3-yl}phenyl)urea]",139 to 141 °C
